Measured values published in publication PMC12606247, “Bidirectional communication between nucleotide and substrate binding sites in a type IV multidrug ABC transporter” (Nature Communications, 2025).

What was measured:
BmrA NBD [1] = biological target: BmrA NBD (Bacillus subtilis, UniProt O06967, W413F); experiment: biochemical
BmrA NBD [2] = biological target: BmrA NBD (Bacillus subtilis, UniProt O06967, R414K); experiment: biochemical
BmrA NBD [3] = biological target: BmrA NBD (Bacillus subtilis, UniProt O06967, R389K); experiment: biochemical
LmrA NBD = LmrA NBD (Lactococcus cremoris, UniProt P97046); experiment: 1H, […]-HSQC NMR chemical shift perturbation; assay type: binding; settings: 50 mM BisTris pH 7, 50 mM NaCl, 298 K
BmrA NBD [4] = biological target: T1, BmrA NBD (Bacillus subtilis, UniProt O06967); experiment: dissociation constant (method not stated in main text); assay type: binding; settings: read-out: KD, ADP
BmrA NBD [5] = biological target: BmrA NBD (Bacillus subtilis, UniProt O06967, K380A); experiment: biochemical
BmrA NBD [6] = biological target: BmrA NBD (Bacillus subtilis, UniProt O06967, R389M); experiment: biochemical
BmrA NBD [7] = biological target: BmrA NBD (Bacillus subtilis, UniProt O06967, R414A); experiment: biochemical
MsbA NBD = MsbA NBD (Escherichia coli, UniProt P60752); experiment: 1H, […]-HSQC NMR chemical shift perturbation; assay type: binding; settings: 50 mM BisTris pH 7, 50 mM NaCl, 298 K
BmrA full-length [8] = biological target: T2, BmrA full-length (Bacillus subtilis, UniProt O06967); experiment: ATPase assay coupled to NADH oxidation (also […] NMR); assay type: biochemical; settings: 10 mM MgCl2, pH 8, 37 °C; detergent, nanodiscs or liposomes
T2 construct: full-length half transporter, C-terminal His6 tag, E. coli C41(DE3); homodimer in DDM/cholate, MSP1E3D1 nanodiscs or inside-out vesicles

BmrA NBD [9] = biological target: T1, BmrA NBD; experiment: 1H, […]-HSQC NMR chemical shift perturbation; assay type: binding; settings: 10 mM ATP, 50 mM BisTris pH 7, 50 mM NaCl, 298 K
BmrA full-length [10] = biological target: T2, BmrA full-length; experiment: HDX-MS (also fluorescence transport assay in inside-out vesicles); assay type: binding; settings: 100 μM doxorubicin, nanodiscs, pD 8.0, 20 °C
BmrA full-length [11] = biological target: T2, BmrA full-length; experiment: […] NMR of 5-fluorotryptophan-labelled protein (W413 line broadening); assay type: binding; settings: 15 mM reserpine, MSP1E3D1 nanodiscs, E. coli polar lipids, 298 K

T2 sequence (O06967 whole entry): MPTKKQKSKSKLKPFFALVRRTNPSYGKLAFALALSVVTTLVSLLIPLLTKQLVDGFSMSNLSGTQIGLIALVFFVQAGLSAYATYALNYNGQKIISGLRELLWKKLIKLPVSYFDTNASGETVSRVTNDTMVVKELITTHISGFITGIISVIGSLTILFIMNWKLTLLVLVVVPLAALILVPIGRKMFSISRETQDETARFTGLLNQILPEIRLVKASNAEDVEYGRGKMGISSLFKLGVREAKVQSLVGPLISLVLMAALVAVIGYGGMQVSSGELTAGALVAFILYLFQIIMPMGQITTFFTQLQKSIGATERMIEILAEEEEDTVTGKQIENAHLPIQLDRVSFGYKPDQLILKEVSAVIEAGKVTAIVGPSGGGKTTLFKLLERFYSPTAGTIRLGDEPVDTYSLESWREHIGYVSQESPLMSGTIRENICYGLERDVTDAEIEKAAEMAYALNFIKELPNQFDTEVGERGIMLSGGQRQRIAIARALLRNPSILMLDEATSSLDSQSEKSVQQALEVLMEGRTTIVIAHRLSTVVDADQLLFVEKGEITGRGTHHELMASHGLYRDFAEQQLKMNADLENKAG
T1 sequence (O06967 331-589): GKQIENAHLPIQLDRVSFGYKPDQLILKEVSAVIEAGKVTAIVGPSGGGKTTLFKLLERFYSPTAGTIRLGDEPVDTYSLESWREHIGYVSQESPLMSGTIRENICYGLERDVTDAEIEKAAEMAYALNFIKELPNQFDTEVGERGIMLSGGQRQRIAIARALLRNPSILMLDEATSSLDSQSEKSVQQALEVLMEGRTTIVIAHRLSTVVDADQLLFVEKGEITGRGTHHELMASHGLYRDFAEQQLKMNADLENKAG
LmrA NBD, sequence (P97046 330-590): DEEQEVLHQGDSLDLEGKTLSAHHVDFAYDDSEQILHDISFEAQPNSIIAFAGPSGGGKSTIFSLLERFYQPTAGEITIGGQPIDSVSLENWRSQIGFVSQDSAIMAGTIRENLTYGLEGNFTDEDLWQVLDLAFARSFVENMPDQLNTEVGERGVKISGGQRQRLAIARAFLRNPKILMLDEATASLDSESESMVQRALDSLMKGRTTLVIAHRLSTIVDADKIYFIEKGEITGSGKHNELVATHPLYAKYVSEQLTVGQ
MsbA NBD, sequence (P60752 323-582): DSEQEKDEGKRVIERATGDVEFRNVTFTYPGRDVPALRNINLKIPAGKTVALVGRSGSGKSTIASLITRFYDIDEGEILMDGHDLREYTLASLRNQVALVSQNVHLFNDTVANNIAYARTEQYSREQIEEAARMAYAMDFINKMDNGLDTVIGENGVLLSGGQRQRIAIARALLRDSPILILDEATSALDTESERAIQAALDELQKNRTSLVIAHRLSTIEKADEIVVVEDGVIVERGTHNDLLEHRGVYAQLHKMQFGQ
BmrA NBD (Bacillus subtilis, UniProt O06967, R414K), sequence (O06967 331-589 R414K): as the sequence (O06967 331-589) above, with R84K counted along it
BmrA NBD (Bacillus subtilis, UniProt O06967, W413F), sequence (O06967 331-589 W413F): as the sequence (O06967 331-589) above, with W83F counted along it
BmrA NBD (Bacillus subtilis, UniProt O06967, R389M), sequence (O06967 331-589 R389M): as the sequence (O06967 331-589) above, with R59M counted along it
BmrA NBD (Bacillus subtilis, UniProt O06967, K380A), sequence (O06967 331-589 K380A): as the sequence (O06967 331-589) above, with K50A counted along it
BmrA NBD (Bacillus subtilis, UniProt O06967, R414A), sequence (O06967 331-589 R414A): as the sequence (O06967 331-589) above, with R84A counted along it
BmrA NBD (Bacillus subtilis, UniProt O06967, R389K), sequence (O06967 331-589 R389K): as the sequence (O06967 331-589) above, with R59K counted along it

## Nc1ncnc2c1ncn2[C@@H]1O[C@H](COP(=O)(O)OP(=O)(O)O)[C@@H](O)[C@H]1O [ADP]
BmrA NBD [1]
  Kd: 221 ± 54 µM
BmrA NBD [2]
  Kd: 266 ± 97 µM
BmrA NBD [3]
  Kd: 221 ± 105 µM
LmrA NBD; 10 mM ADP
  1H,15N-HSQC NMR chemical shift perturbation: (BmrA W413, LmrA W421, MsbA L415) responded to the addition of ATP or ADP
BmrA NBD [4]
  Kd: 214 ± 43 µM
BmrA NBD [5]
  Kd: 14.4 ± 3.7 mM
BmrA NBD [6]
  Kd: 2.89 ± 1.46 mM
BmrA NBD [7]
  Kd: 575 ± 43.5 µM
MsbA NBD; 10 mM ADP
  1H,15N-HSQC NMR chemical shift perturbation: (BmrA W413, LmrA W421, MsbA L415) responded to the addition of ATP or ADP

## Nc1ncnc2c1ncn2[C@@H]1O[C@H](COP(=O)(O)OP(=O)(O)OP(=O)(O)O)[C@@H](O)[C@H]1O [ATP]
BmrA full-length [8]
  ATPase assay coupled to NADH oxidation (also 19F NMR): ATPase activity of purified BmrA full-length WT, K380A and hinge mutant constructs was determined
LmrA NBD; 10 mM ATP
  1H,15N-HSQC NMR chemical shift perturbation: (BmrA W413, LmrA W421, MsbA L415) responded to the addition of ATP or ADP
MsbA NBD; 10 mM ATP
  1H,15N-HSQC NMR chemical shift perturbation: (BmrA W413, LmrA W421, MsbA L415) responded to the addition of ATP or ADP
BmrA NBD [9]
  1H,15N-HSQC NMR chemical shift perturbation: (BmrA W413, LmrA W421, MsbA L415) responded to the addition of ATP or ADP

## COc1cccc2c1C(=O)c1c(O)c3c(c(O)c1C2=O)C[C@@](O)(C(=O)CO)C[C@@H]3O[C@H]1C[C@H](N)[C@H](O)[C@H](C)O1 [doxorubicin]
BmrA full-length [10]
  HDX-MS (also fluorescence transport assay in inside-out vesicles): in the absence and presence of doxorubicin showed decreased exchange in the TMD

## COC(=O)[C@H]1[C@H]2C[C@@H]3c4[nH]c5cc(OC)ccc5c4CCN3C[C@H]2C[C@@H](OC(=O)c2cc(OC)c(OC)c(OC)c2)[C@@H]1OC [reserpine]
BmrA full-length [11]
  19F NMR of 5-fluorotryptophan-labelled protein (W413 line broadening): Addition of ATP or the substrate reserpine resulted in changes in chemical shift and linewidths
